In US20180360972A1, “THERAPEUTIC COMPOUNDS” (REGENTS OF THE UNIVERSITY OF MINNESOTA, priority 2017, published 2018):
pIC50: −log10 of the molar value. “Also recorded” adds a separate entry of the source. Where two headings read alike, the source gives them in different places.

What was measured:
[1] = biological target: mMC4R-NanoLuc and mMC4R-HaloTag homodimer (Mus musculus, UniProt P56450); assay: NanoBRET ligand-dependent modulation of BRET signal; details: ligand at 10 μM
Procedure: On the first day, cells were plated into 6 well plates in the morning. In the afternoon of the same day, cells were transiently transfected with mMC4R-NanoLuc® fusion protein and the MC4R-HaloTag® fusion protein by adding FuGene6 Transfection (8 μL/well, Promega), DNA (2 μg/well) in OptiMem medium (Invitrogen) at a total volume of 100 μL/well. […] Cells were incubated with transfection reagent overnight at 5% CO2 at 37° C.
This provides the background signal and was subtracted from the final experimental signal. Plates were then developed 48 to 60 hours after transfection. Two hours before the plates were developed, 10 μL of a 10× aliquot of the ligand diluted in assay buffer was added to each well to yield the final in well concentration (10^−5, 10^−7, or 10^−9M) of each compound. For the assay buffer control, 10 μL of assay buffer was added instead of compound. […] The standard error of the mean (SEM) was derived from at least three independent experiments.

wild type mice = assay: ICV administration, conventional cages, wild type mice; assay type: in vivo
Procedure: (§1) All experiments were performed in accordance with the Institutional Animal Care and Use Committee (IACUC) at the University of Minnesota. Female and male littermates with mixed background from C57BL/6J and 129/Sv inbred strains were 8 weeks old at the time of surgeries. Mice were individually housed after surgeries and for the remainder of the experiment. Mice were maintained on a 12 hr light/dark cycle (Lights off was at 11:59 AM) in a temperature controlled room (23-25° C.). In the nocturnal feeding paradigm, mice had free access to normal chow (Harlan Teklad 2018 Diet: 18.6% crude protein, 6.2% crude fat, 3.5% crude fiber, with energy density of 3.1 kcal/g). […] Mice had free access to tap water throughout all the experiments. The cannula placement validation studies and conventional cage studies were performed in standard mouse polycarbonate conventional cages provided by University of Minnesota's Research Animal Resources (RAR). Weekly cage changes were conducted by lab research staff.
(§2) Mice were anesthetize with a mixture of ketamine (100 mg/kg) and xylazine (5 mg/kg) and were positioned in a stereotaxic apparatus (David Kopf Instruments). A 26-gauge cannula (Cat# 81C315GS4SPC; PlasticsOne, Roanoke, Va.) was inserted in the lateral cerebral ventricle at the coordinates 1.0 mm lateral and 0.46 mm posterior to bregma and 2.3 mm ventral to the skull (Franklin, K. B. J. & Paxinos, G. The Mouse Brain in Stereotaxic Coordinates. (Academic Press, 1997)).
(§3) Each mouse was administered hPYY and saline on different days following a crossover design in the nocturnal feeding paradigm. In the nocturnal paradigm, compound is administered 2 hours prior to lights out with free access to food and water throughout the entire experiment. There was at least a 4 day washout period between administration to ensure that normal feeding patterns and body weight returned. Food intake and body weight were manually measured 2, 4, and 6 hours after hPYY or saline administration. A mouse with a validated cannula placement for the TSE cage experiments consumed at least 1.0 g more after hPYY administration compared to saline administration 4 hours post-administration.
(§4) As stated above, conventional cage experiments were performed in standard mouse polycarbonate conventional cages. […] All experiments followed a cross-over paradigm in which the mouse received saline and compound on different days with a washout period in between each treatment. Statistical analysis was performed using SPSS V23 software (IBM) using a multivariate general linear model followed by a Bonferroni's post hoc test. Results are presented as Mean±SEM. Statistically significant was considered p<0.05.

male wild type mice = assay type: in vivo; details: for energy expenditure vs saline / food intake vs saline / respiratory exchange ratio (RER) vs saline / water intake vs saline: 5 nmols CJL-5-58 or 5 nmols each CJL-1-14 and CJL-1-80
Procedure: as §1, §2, §3, §4

male MC3RKO mice = assay: ICV administration, TSE metabolic cages, male MC3RKO mice; assay type: in vivo
Procedure: as §1, §2, §4
In order to more clearly understand the effects of the biased agonism at the MC4R, the effects of administration of CJL-5-58 was explored in MC3R knockout (KO) mice and MC4RKO mice. […] Adverse reactions included two mice dying after the 5 nmol dose. […] The large error in activity may serve as an indication of toxicity. It is currently difficult to decipher whether the adverse reactions observed are due to paradigm effects, genotype difference, or compound toxicity.

mMC4R = biological target: T1, mMC4R (Mus musculus, UniProt P56450); assay: 125I-NDP-MSH competitive binding; details: displacement of 125I-NDP-MSH; receptor subtype not printed at b283; read-out: binding affinity IC50
T1 construct: expressed in transfected cells
T1 sequence (P56450 whole entry): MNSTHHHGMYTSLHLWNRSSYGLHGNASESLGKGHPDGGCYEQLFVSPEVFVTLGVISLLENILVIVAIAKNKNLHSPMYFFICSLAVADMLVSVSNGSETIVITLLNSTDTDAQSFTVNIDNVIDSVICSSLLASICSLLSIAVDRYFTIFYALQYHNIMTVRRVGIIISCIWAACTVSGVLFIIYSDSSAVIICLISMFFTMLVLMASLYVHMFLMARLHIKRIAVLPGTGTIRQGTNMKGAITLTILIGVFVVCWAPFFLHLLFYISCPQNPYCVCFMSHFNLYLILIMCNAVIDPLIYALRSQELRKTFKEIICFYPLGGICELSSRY
Procedure: NDP-MSH was radioiodinated with Na^125I utilizing the chloramine T procedure (26). […] HEK293 cells stably expressing wildtype mMC1R or mMC4R were maintained as described above. Transiently transfected HEK293 cells were used for binding experiments on the mMC3R. Transfection was performed in 10 cm plates using FuGene6 transfection reagent (15 μL/plate; Promega), Opti-Mem medium (1.7 mL/plate; Invitrogen), and mMC3R-Flag DNA (3.33 μg/plate) two days prior to binding experiment. One or two days preceding the competition experiments, cell were plated into 12-well tissue culture plates (Corning Life Sciences, Cat. # 353043) and grown to 90-100% confluency. On the day of the assay, media was removed gently. The cells were treated with a freshly diluted aliquot of non-labeled compound at the in well concentration being tested (ranging from 10^−12 to 10^−4 M as appropriate) in assay buffer (DMEM and 0.1% BSA) and a constant amount of ^1251-NDP-MSH (100,000 cpm/well) and were incubated at 37° C. for one hour. […] The radioactivity was quantified on WIZARD^2 Automatic Gamma Counter (PerkinElmer). […] The non-specific values used for calculations was radioactivity of the 10^−6 M unlabeled NDP-MSH. Data was analyzed by a nonlinear regression method using the PRISM program (v4.0; GraphPad Inc.) to generate and calculate dose-response curves and IC50 values.

[2] = fasting-refeeding, time after administration
[3] = nocturnal free-feeding paradigm, 5.0 nmol ICV
[4] = nocturnal paradigm, 1 nmol dose

mMC4R-NanoLuc and mMC4R-HaloTag homodimer, sequence (P56450 whole entry): as above
mMC4R-NanoLuc and mMC4R-HaloTag homodimer, sequence (P56450 whole entry): as above

CC(=O)N[C@@H](Cc1cnc[nH]1)C(=O)N[C@H](Cc1ccccc1)C(=O)N[C@@H](CCCNC(=N)N)C(=O)N[C@@H](Cc1c[nH]c2ccccc12)C(=O)NCCCOCCOCCOCCCNC(=O)COCC(=O)N[C@@H](Cc1cnc[nH]1)C(=O)N[C@H](Cc1ccc2ccccc2c1)C(=O)N[C@@H](CCCNC(=N)N)C(=O)N[C@@H](Cc1c[nH]c2ccccc12)C(N)=O [CJL-5-58, Ac-His-DPhe-Arg-Trp-(PEDG20)-His-DNal(2′)-Arg-Trp-NH2]
reduction in BRET signal compared to basal signal [1]: ~8%
adverse effects (wild type mice; ICV 2.5 nmols and 5.0 nmols, conventional cages): no signs of adverse effects
change in body weight vs saline, female mice (wild type mice; fasting-refeeding): Only the 2 hour time point was significant
change in body weight vs saline, male mice (wild type mice; fasting-refeeding): significant difference was observed in the change in weight of the male mice after compound administration at time points 2, 4, 6, 8, and 24 hours
food intake (wild type mice; fasting-refeeding after 22 hour fast, ICV dose response): dose dependent decrease in food intake; also recorded: reduce food intake
food intake vs saline, female mice (time points of significant decrease) (wild type mice; [2]): 2 and 4 hours
food intake vs saline, male mice (wild type mice; [2]): Significant decreased food intake was observed at 2, 4, 6, and 8 hours; also recorded: Significant decreases in food intake were observed at 2, 4, 6, and 8 hours
body weight vs saline (wild type mice; [3]): no statistically significant effect
food intake vs saline (wild type mice; [3]): no statistically significant effect
RER, CJL-5-58 vs co-administration of CJL-1-14 and CJL-1-80 (male wild type mice; fasting paradigm): significant differences in RER at the 2, 3, 6, and 7 hour time points
activity vs saline (male wild type mice; fasting paradigm): no significant differences were observed in activity
energy expenditure, CJL-5-58 vs co-administration of CJL-1-14 and CJL-1-80 (male wild type mice; fasting paradigm): significantly higher for CJL-5-58 at the 13 and 17 hour time points
food intake, CJL-5-58 vs co-administration of CJL-1-14 and CJL-1-80 (male wild type mice; fasting paradigm): significant differences in the food intake at 2 and 4 hour time point
number of mice that died (male wild type mice; fasting paradigm): one
energy expenditure reached after treatment (male wild type mice; fasting paradigm, 5 nmol dose, baseline c.a. 12): 17 to 19 kcal/h/kg
energy expenditure vs saline (male wild type mice; fasting paradigm): significantly lower for the first 3 hours post-treatment; also recorded: increased energy expenditure is observed 15, 17, and 21 hours after compound administration
food intake vs saline (male wild type mice; fasting paradigm): decrease in food intake up to 12 hours after administration
respiratory exchange ratio (RER) vs saline (male wild type mice; fasting paradigm): significantly lower RER was observed for the first 9 hours and at 17 hours
water intake vs saline (male wild type mice; fasting paradigm): decrease in water intake was observed with 5 nmols of CJL-5-58 at time points 4, 6, 8, 10, and 12 hours
number of adverse reactions (male wild type mice; fasting paradigm, within 30 minutes of injection): four
time to recovery from adverse reactions (male wild type mice; mice experiencing adverse reactions): < 1 h
activity vs saline (male wild type mice; nocturnal paradigm): increase in activity was observed during the first 5 hours after administration
any parameter, CJL-5-58 vs co-administration of CJL-1-14 and CJL-1-80 (male wild type mice; nocturnal paradigm): no significant differences were observed for any parameter
number of adverse reactions (male wild type mice; nocturnal paradigm): 2
number of mice that died (male wild type mice; nocturnal paradigm): one
energy expenditure vs saline (male wild type mice; nocturnal paradigm): increase in energy expenditure was observed 5, 13, 15, and 16 hours after treatment
food intake vs saline (male wild type mice; nocturnal paradigm): no significant effect was observed
respiratory exchange ratio (RER) vs saline (male wild type mice; nocturnal paradigm): significantly lowered RER values only until 2 hours after administration
water intake vs saline (male wild type mice; nocturnal paradigm): no difference in water intake was observed
RER vs saline (male MC3RKO mice; fasting-refeeding, 0.5 nmol): significant increase in RER at time point 24 hours
other parameters vs saline (male MC3RKO mice; fasting-refeeding, 0.5 nmols): No other parameters were significantly affected
RER vs saline (male MC3RKO mice; fasting-refeeding, 1 nmol): significantly reduced at 2 and 3 hours
energy expenditure vs saline (male MC3RKO mice; fasting-refeeding, 1 nmol): Significant reductions in energy expenditure were observed in the fasting paradigm at time points 1 and 2 hours
food intake vs saline (male MC3RKO mice; fasting-refeeding, 1.0 nmol): Significant reduction in food intake was observed at 2 and 4 hour time points
adverse reactions / toxicity (male MC3RKO mice; fasting-refeeding, 1.0 or 0.5 nmols): some minor signs of adverse reactions; also recorded: Some toxicity was observed
adverse reactions (male MC3RKO mice; [4]): No adverse reactions were observed
effects on measured parameters vs saline (male MC3RKO mice; [4]): no significant effects were observed
RER vs saline (male MC3RKO mice; nocturnal paradigm, 2.5 nmol): significant increased RER was observed 18, 19, and 24 hours
energy expenditure vs saline (male MC3RKO mice; nocturnal paradigm, 2.5 nmol): significant reduced 1-8 and 13 hours post-treatment
energy expenditure vs saline (male MC3RKO mice; nocturnal paradigm, 5 nmol): significantly reduced at time points 1-3 hrs
food intake vs saline (male MC3RKO mice; nocturnal paradigm, 5 nmol): decreased at time points 2-12 hours
number of mice dying (male MC3RKO mice; nocturnal paradigm, 5 nmol dose): two
activity vs saline (male MC3RKO mice; nocturnal paradigm, 5 nmols): trended towards being lowered (p=0.069)
RER vs saline (male MC3RKO mice; nocturnal paradigm, 5 nmols (dose not restated for CJL-5-58)): significantly decreased at time points 1-5, 8 and 12 hours
adverse reactions / toxicity (male MC3RKO mice; nocturnal paradigm, 2.5 to 5 nmols): adverse reactions were also observed at the 2.5 and 5 nmol concentrations; also recorded: Some toxicity was observed
pIC50 (mMC4R): 7.85
